Results reported in the supplement of paper PMC10627819.

How the values were obtained:
Experiment in all cases: Bliss interaction score (quartile over a dose matrix) (fitness difference); higher = more antagonism (negative = synergy)
S. aureus DSM 20231 = tested on: S. aureus DSM 20231
Procedure, shortened: (§1)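 Quartiles of the Bliss score were taken over technical, biological and donor/recipient replicates. That score is observed fitness minus the product of the single-drug fitness values, which were inferred from combination data. Fitness itself is OD595 at entry into stationary phase divided by the plate's robust no-drug mean, with a cap at 1.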

S. aureus Newman = tested on: S. aureus Newman
Procedure, shortened: as §1

B. subtilis 168 = tested on: B. subtilis 168
Procedure, shortened: as §1

S. pneumoniae D39V = tested on: S. pneumoniae D39V
Procedure, shortened: as §1
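Further: first quartile when negative (synergy) and third quartile when positive (antagonism).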

Structure (SMILES) | Bliss interaction score (S. aureus DSM 20231) | Bliss interaction score (S. aureus Newman) | Bliss interaction score (B. subtilis 168) | Bliss interaction score (S. pneumoniae D39V) | Bliss interaction score (S. aureus DSM 20231; main component drawn) | Bliss interaction score (S. aureus Newman; main component drawn) | Bliss interaction score (B. subtilis 168; main component drawn) | Bliss interaction score (S. pneumoniae D39V; main component drawn)
COc1c(N2C[C@@H]3CCCN[C@@H]3C2)c(F)cc2c(=O)c(C(=O)O)cn(C3CC3)c12 [Moxifloxacin] + C/C(=C\C(=O)OCCCCCCCCC(=O)O)C[C@@H]1OC[C@H](C[C@@H]2O[C@H]2[C@@H](C)[C@H](C)O)[C@@H](O)[C@H]1O [Pseudomonic acid] | -0.019 | 0.0227 | 0.0399 | 0.072 | – | – | – | –
COc1c(N2C[C@@H]3CCCN[C@@H]3C2)c(F)cc2c(=O)c(C(=O)O)cn(C3CC3)c12 [Moxifloxacin] + CC1(C)S[C@@H]2[C@H](NC(=O)Cc3ccccc3)C(=O)N2[C@H]1C(=O)O [PenicillinG] | 0.0629 | -0.0783 | 0.0377 | 0.0895 | – | – | – | –
COc1c(N2C[C@@H]3CCCN[C@@H]3C2)c(F)cc2c(=O)c(C(=O)O)cn(C3CC3)c12 [Moxifloxacin] + CC[C@H]1OC(=O)[C@H](C)C(=O)[C@H](C)[C@@H](O[C@@H]2O[C@H](C)C[C@H](N(C)C)[C@H]2O)[C@](C)(OC)C[C@@H](C)C(=O)[C@H](C)[C@H]2N(CCCCn3cnc(-c4cccnc4)c3)C(=O)O[C@]12C [Telithromycin] | 0.0615 | 0.0472 | 0.0281 | 0.0543 | – | – | – | –
COc1c(N2C[C@@H]3CCCN[C@@H]3C2)c(F)cc2c(=O)c(C(=O)O)cn(C3CC3)c12 [Moxifloxacin] + CN[C@H](CC(C)C)C(=O)N[C@H]1C(=O)N[C@@H](CC(N)=O)C(=O)N[C@H]2C(=O)N[C@H]3C(=O)N[C@H](C(=O)N[C@H](C(=O)O)c4cc(O)cc(O)c4-c4cc3ccc4O)[C@H](O[C@H]3C[C@](C)(N)[C@@H](O)[C@H](C)O3)c3ccc(c(Cl)c3)Oc3cc2cc(c3O[C@@H]2O[C@H](CO)[C@@H](O)[C@H](O)[C@H]2O[C@H]2C[C@](C)(NCc3ccc(-c4ccc(Cl)cc4)cc3)[C@@H](O)[C@H](C)O2)Oc2ccc(cc2Cl)[C@H]1O [Oritavancin] | -0.0425 | 0.0436 | 0.024 | -0.052 | – | – | – | –
COc1c(N2C[C@@H]3CCCN[C@@H]3C2)c(F)cc2c(=O)c(C(=O)O)cn(C3CC3)c12 [Moxifloxacin] + Oc1cc(Cl)ccc1Oc1ccc(Cl)cc1Cl [Triclosan] | -0.0397 | -0.038 | 0.0151 | 0.0747 | – | – | – | –
O=C1CN(/N=C/c2ccc([N+](=O)[O-])o2)C(=O)N1 [Nitrofurantoin] + C/C(=C\C(=O)OCCCCCCCCC(=O)O)C[C@@H]1OC[C@H](C[C@@H]2O[C@H]2[C@@H](C)[C@H](C)O)[C@@H](O)[C@H]1O [Pseudomonic acid] | -0.0197 | -0.0266 | 0.127 | 0.0739 | – | – | – | –
O=C1CN(/N=C/c2ccc([N+](=O)[O-])o2)C(=O)N1 [Nitrofurantoin] + CC1(C)S[C@@H]2[C@H](NC(=O)Cc3ccccc3)C(=O)N2[C@H]1C(=O)O [PenicillinG] | -0.0568 | 0.0397 | -0.0696 | 0.13 | – | – | – | –
O=C1CN(/N=C/c2ccc([N+](=O)[O-])o2)C(=O)N1 [Nitrofurantoin] + CCCCCCCCCC(=O)N[C@@H]1[C@H]([C@@H]([C@H](O[C@H]1OC2=C3C=C4C=C2OC5=C(C=C(C=C5)[C@H]([C@H]6C(=O)N[C@@H](C7=C(C(=CC(=C7)O)OC8[C@H]([C@H]([C@@H]([C@H](O8)CO)O)O)O)C9=C(C=CC(=C9)[C@H](C(=O)N6)NC(=O)[C@@H]4NC(=O)[C@@H]1C2=CC(=CC(=C2)OC2=C(C=CC(=C2)[C@H](C(=O)N[C@H](CC2=CC(=C(O3)C=C2)Cl)C(=O)N1)N)O)O)O)C(=O)O)O[C@H]1[C@@H]([C@H]([C@@H]([C@H](O1)CO)O)O)NC(=O)C)Cl)CO)O)O [Teicoplanin] | – | – | – | – | 0.0402 | -0.0914 | -0.157 | -0.06
O=C1CN(/N=C/c2ccc([N+](=O)[O-])o2)C(=O)N1 [Nitrofurantoin] + CC[C@H]1OC(=O)[C@H](C)C(=O)[C@H](C)[C@@H](O[C@@H]2O[C@H](C)C[C@H](N(C)C)[C@H]2O)[C@](C)(OC)C[C@@H](C)C(=O)[C@H](C)[C@H]2N(CCCCn3cnc(-c4cccnc4)c3)C(=O)O[C@]12C [Telithromycin] | -0.0398 | -0.0641 | -0.128 | -0.293 | – | – | – | –
O=C1CN(/N=C/c2ccc([N+](=O)[O-])o2)C(=O)N1 [Nitrofurantoin] + CN[C@H](CC(C)C)C(=O)N[C@H]1C(=O)N[C@@H](CC(N)=O)C(=O)N[C@H]2C(=O)N[C@H]3C(=O)N[C@H](C(=O)N[C@H](C(=O)O)c4cc(O)cc(O)c4-c4cc3ccc4O)[C@H](O[C@H]3C[C@](C)(N)[C@@H](O)[C@H](C)O3)c3ccc(c(Cl)c3)Oc3cc2cc(c3O[C@@H]2O[C@H](CO)[C@@H](O)[C@H](O)[C@H]2O[C@H]2C[C@](C)(NCc3ccc(-c4ccc(Cl)cc4)cc3)[C@@H](O)[C@H](C)O2)Oc2ccc(cc2Cl)[C@H]1O [Oritavancin] | -0.0379 | -0.118 | 0.0189 | -0.0352 | – | – | – | –
O=C1CN(/N=C/c2ccc([N+](=O)[O-])o2)C(=O)N1 [Nitrofurantoin] + CO[C@@H]1[C@@H](OC(N)=O)[C@@H](O)[C@H](Oc2ccc3c(O)c(NC(=O)c4ccc(O)c(CC=C(C)C)c4)c(=O)oc3c2C)OC1(C)C [Novobiocin] | 0.0482 | 0.0827 | 0.0731 | 0.0513 | – | – | – | –
O=C1CN(/N=C/c2ccc([N+](=O)[O-])o2)C(=O)N1 [Nitrofurantoin] + COc1cc(Cc2cnc(N)nc2N)cc(OC)c1OC [Trimethoprim] | -0.0418 | 0.0663 | -0.181 | -0.553 | – | – | – | –
O=C1CN(/N=C/c2ccc([N+](=O)[O-])o2)C(=O)N1 [Nitrofurantoin] + Oc1cc(Cl)ccc1Oc1ccc(Cl)cc1Cl [Triclosan] | -0.014 | 0.0328 | -0.039 | 0.0809 | – | – | – | –
C/C(=C\C(=O)OCCCCCCCCC(=O)O)C[C@@H]1OC[C@H](C[C@@H]2O[C@H]2[C@@H](C)[C@H](C)O)[C@@H](O)[C@H]1O [Pseudomonic acid] + CC[C@H]1OC(=O)[C@H](C)C(=O)[C@H](C)[C@@H](O[C@@H]2O[C@H](C)C[C@H](N(C)C)[C@H]2O)[C@](C)(OC)C[C@@H](C)C(=O)[C@H](C)[C@H]2N(CCCCn3cnc(-c4cccnc4)c3)C(=O)O[C@]12C [Telithromycin] | 0.0119 | -0.028 | 0.0359 | -0.0569 | – | – | – | –
C/C(=C\C(=O)OCCCCCCCCC(=O)O)C[C@@H]1OC[C@H](C[C@@H]2O[C@H]2[C@@H](C)[C@H](C)O)[C@@H](O)[C@H]1O [Pseudomonic acid] + COc1cc(Cc2cnc(N)nc2N)cc(OC)c1OC [Trimethoprim] | 0.0182 | 0.0264 | 0.0595 | -0.143 | – | – | – | –
C/C(=C\C(=O)OCCCCCCCCC(=O)O)C[C@@H]1OC[C@H](C[C@@H]2O[C@H]2[C@@H](C)[C@H](C)O)[C@@H](O)[C@H]1O [Pseudomonic acid] + Oc1cc(Cl)ccc1Oc1ccc(Cl)cc1Cl [Triclosan] | -0.0069 | -0.0174 | -0.0255 | 0.0696 | – | – | – | –
CCCCCCCCCC(=O)N[C@H]1[C@H](Oc2c3cc4cc2Oc2ccc(cc2Cl)[C@@H](O[C@@H]2O[C@H](CO)[C@@H](O)[C@H](O)[C@H]2NC(C)=O)[C@@H]2NC(=O)[C@H](NC(=O)[C@@H]4NC(=O)[C@H]4NC(=O)[C@@H](Cc5ccc(c(Cl)c5)O3)NC(=O)[C@H](N)c3ccc(O)c(c3)Oc3cc(O)cc4c3)c3ccc(O)c(c3)-c3c(O[C@H]4O[C@H](CO)[C@@H](O)[C@H](O)[C@@H]4O)cc(O)cc3[C@@H](C(=O)O)NC2=O)O[C@H](CO)[C@@H](O)[C@@H]1O [Teicoplanin] + CC[C@H]1OC(=O)[C@H](C)C(=O)[C@H](C)[C@@H](O[C@@H]2O[C@H](C)C[C@H](N(C)C)[C@H]2O)[C@](C)(OC)C[C@@H](C)C(=O)[C@H](C)[C@H]2N(CCCCn3cnc(-c4cccnc4)c3)C(=O)O[C@]12C [Telithromycin] | – | – | – | – | 0.0617 | 0.0616 | 0.0347 | 0.0575
CCCCCCCCCC(=O)N[C@H]1[C@H](Oc2c3cc4cc2Oc2ccc(cc2Cl)[C@@H](O[C@@H]2O[C@H](CO)[C@@H](O)[C@H](O)[C@H]2NC(C)=O)[C@@H]2NC(=O)[C@H](NC(=O)[C@@H]4NC(=O)[C@H]4NC(=O)[C@@H](Cc5ccc(c(Cl)c5)O3)NC(=O)[C@H](N)c3ccc(O)c(c3)Oc3cc(O)cc4c3)c3ccc(O)c(c3)-c3c(O[C@H]4O[C@H](CO)[C@@H](O)[C@H](O)[C@@H]4O)cc(O)cc3[C@@H](C(=O)O)NC2=O)O[C@H](CO)[C@@H](O)[C@@H]1O [Teicoplanin] + Oc1cc(Cl)ccc1Oc1ccc(Cl)cc1Cl [Triclosan] | – | – | – | – | 0.0695 | -0.0356 | 0.0943 | -0.106
